In patent US10138282B2, “Peptide antagonist of LL-37” (INDIANA UNIVERSITY RESEARCH AND TECHNOLOGY CORPORATION, priority 2014, dated 2018):
“Also recorded” adds a separate entry of the source. Where no end group is shown, it is not given here.

Key:
[1] = system: Escherichia coli ATCC 25922; assay: MIC assay, broth microdilution (CLSI); assay type: cell-based; conditions: E. coli ATCC 25922; peptide: None
Protocol: MIC assays were performed according to protocols for broth microdilution according to the Clinical Laboratory Standards Institute (CLSI, 2015. Methods for Dilution Antimicrobial susceptibility tests for bacterial that grow aerobically; Approved standard—tenth edition).

TLR4 signaling = assay: IL-6 production (ELISA) in BEAS-2B cells induced with LPS; assay type: cell-based, human; conditions: for IL-6 production (%) LPS-depend.: BEAS-2B cells induced with 1.0 μg/ml of LPS, LL-37 100
Protocol: (§1) IL-6 production was quantified by ELISA using the OptEIA™ kit (BD Biosciences). A typical assay used 2×10^4 BEAS-2B cells/well grown for 24 h in flat bottom 96-well plates. Poly(I:C) was added to a final concentration of 0.13 μg/ml. Antimicrobial peptides were added to the cell culture medium to a final concentration of 3 μM unless specified otherwise. All ELISA results shown were performed in triplicate and in at least three independent experiments.
(§2) To better define how residues in LL-37 contribute to function, several variants derived from LL-37 were tested for: 1) repression of TLR4 signaling by LPS, 2) enhancement of TLR3 signaling by poly(I:C), and 3) binding to LL-37. Signaling by TLR3 and TLR4 were monitored using ELISA to detect IL-6 secreted into the medium of BEAS-2B cells.

TLR3 signaling = assay: IL-6 production (ELISA) in BEAS-2B cells induced with poly(I:C); assay type: cell-based, human; conditions: for Enhancement of TLR3 signaling / poly(I:C)-induced IL-6, in words: BEAS-2B cells; for IL-6 production (%) poly(I:C)-depend.: BEAS-2B cells induced with 130 ng/ml of poly(I:C), LL-37 100
Protocol: as §1, §2

[2] = Dynamic light scatter spectroscopy, hydrodynamic radius; assay type: physicochemical; conditions: for Hydrodynamic radius (nm) pH 5.8 / Hydrodynamic radius (nm) pH 7.4: 1.0 μM peptide; for Hydrodynamic radius (nm) pH 5.8: phosphate buffer pH 5.8; for Hydrodynamic radius (nm) pH 7.4: phosphate buffer pH 7.4; for pH-dependent dissociation of peptide particles, in words: acidification of phosphate buffer
Protocol: The hydrodynamic radii of LL-37 and other peptides were monitored by a Zetasizer Nano-S instrument (Malvern Instruments). All measurements were taken with 1 μM of peptide dissolved in phosphate buffer adjusted to the desired pH at 22° C.

poly(I:C) = assay: Fluorescence polarization, peptide binding to poly(I:C)
Protocol: (§3) Peptide binding to poly(I:C) was analyzed by monitoring fluorescence polarization using the Synergy H1 microplate reader (BioTek). Fluorescein-labeled LL-37 was titrated to a 100 μL solution containing poly(I:C) and phosphate buffers at different pHs. Interactions between LL-37 and other peptides were analyzed using LL-37 labeled at the N-terminus with fluorescein (0.1 μM), and peptides were titrated from 1 nM to 1000 nM in phosphate buffer at pH 7.0. Interaction between poly(I:C) and different peptides was determined by titrating fluorescein-labeled poly(I:C) (0.1 μM) with peptides added to final concentrations of 10 to 500 nM in phosphate buffer at pH 7.4. All polarization assays were performed in triplicate.
LL-37 accompanies dsRNA to endosomes containing TLR3. However, it is unknown whether LL-37 will release the dsRNA in endosomes. Johansson et al. (1998) have previously determined that a neutral pH is required for the activity of LL-37. We seek to determine whether LL-37 binding to dsRNA can be affected by pH.

FPRL-1 receptor = target: T1, FPRL-1 receptor (Homo sapiens, UniProt P25090); assay: IL-6 production in BEAS-2B cells knocked down with siRNA (FPRL-1, EGFR, control); assay type: cell-based; conditions: for IL-6 production, peptide with poly(I:C), in words: knockdown of either FPRL-1 or EGFR; for IL-6 production, peptide added along with LL-37 and poly(I:C), in words: siRNA to FPRL-1 or nonspecific control
T1 construct: a human lung epithelial cell line that expresses endogenous FPRL-1; endogenous in cells; host or cells: BEAS-2B
T1 sequence (P25090 1-351): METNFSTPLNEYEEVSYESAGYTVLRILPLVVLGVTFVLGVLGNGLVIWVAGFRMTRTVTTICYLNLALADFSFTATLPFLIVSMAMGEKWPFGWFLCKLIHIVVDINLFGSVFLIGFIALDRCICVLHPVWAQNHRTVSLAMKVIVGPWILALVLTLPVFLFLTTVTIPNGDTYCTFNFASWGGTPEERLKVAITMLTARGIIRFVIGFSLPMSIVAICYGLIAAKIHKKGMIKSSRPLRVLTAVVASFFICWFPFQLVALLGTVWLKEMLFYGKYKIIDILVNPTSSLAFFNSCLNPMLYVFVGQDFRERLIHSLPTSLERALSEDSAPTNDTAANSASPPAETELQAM
Protocol: BEAS-2B cells were seeded at 2×10^6 cells per 6-well plate for 6 h prior to transfection with 30 nM of a pool of three siRNAs from Santa Cruz Biotechnology. Transfections were done using Lipofectamine 2000.
Cells were grown on poly-L-lysine (Life Technologies). The level of target mRNA was analyzed using qRT-PCR and normalized to the levels of GAPDH mRNA. The sequences of the primers will be made available upon request. Poly(I:C) was added 48 h after siRNA transfection and IL-6 levels in the culture media were collected 24 h later.
LL-37's enhancement of TLR3 signaling required trafficking of LL-37/poly(:C) to endosomes via the FPRL-1 receptor. Therefore, we examined whether LL-29 used the FPRL-1 receptor to enter cells. siRNA was used to knock down the expression of either FPRL-1, EGFR, or TLR3. […] Co-localization of fLL-37 and rpIC was reduced to less than a third of the control. […] Knockdowns performed with siRNAs to either a nonspecific control or EGFR had no effect on the enhancement of IL-6 production.
Will LL-29 affect the use of the FPRL-1 receptor by the LL-37/poly(I:C) complex? BEAS-2B cells knocked down for FPRL-1 were treated with LL-37 along with additional concentrations of LL-37, Pentamide, LL-29, Peptide A, or LL8-37 (FIG. 6C). Signaling by TLR3 was determined by the amount of IL-6 secreted in the cell culture media. A control siRNA had no effect on WT LL-37/poly(I:C) enhancement of IL-6 production.
LL-37 uses the Formyl peptide receptor-like 1 (FPRL-1) receptor to deliver nucleic acids into endosomes, where activation of the Toll-like receptors that recognize nucleic acids takes place (Singh et al., 2014). We sought to determine whether the LL-37 orthologs from other mammals could also use the FPRL-1 in the human BEAS-2B cells to deliver dsRNA. BEAS-2B cells were treated with poly(I:C) along with the peptides and the peptides from pig, sheep, rabbit, and mouse had reduced ability to use the FPRL-1 to activate IL-6 production.

f-LL37 = target: T2, f-LL37 (Homo sapiens, UniProt P49913); assay: Fluorescence polarization, interaction of peptides with fluorescein-labeled LL-37; assay type: binding
T2 sequence (P49913 134-170 limits assumed): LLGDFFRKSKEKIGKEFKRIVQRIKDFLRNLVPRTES
Protocol: as §3

Reovirus dsRNA, Reo S4 = assay: IL-6 production in BEAS-2B cells in the presence of Reovirus dsRNA Reo S4; assay type: cell-based, human
Protocol: as §1
Herein, we analyzed the LL-37 orthologs from Rhesus monkeys, pig, sheep, guinea pigs, rabbit, as well as mouse (FIG. 14A). All peptides were chemically synthesized and assayed for the induction of inflammatory cytokine IL-6 in the presence of the double-stranded RNA mimic, poly(I:C) or the Reovirus dsRNA, Reo S4 (FIGS. 14B and 14C). […] Importantly, all LL-37 orthologs tested had the ability to reduce IL-6 production in response to LPS (FIG. 14E).

[3] = system: LL-37 enhancement of TLR3 signaling; assay: Antagonism of LL-37/poly(I:C)-enhanced IL-6 production in BEAS-2B cells; assay type: cell-based, human; conditions: peptide added with LL-37/poly(I:C), BEAS-2B cells
Protocol: as §1
We examined whether LL-29 could affect the enhancement of TLR3 signaling by WT LL-37/poly(I:C). An increasing amount of LL-29 along with a constant amount of LL-37/poly(I:C) was used to assess IL-6 production in BEAS-2B cells. […] That is, LL-29 abrogated LL-37's ability to enhance TLR3 signaling. That is, LL-29 is an example of a peptide antagonist of LL-37 function.

COc1cccc2c1C(=O)c1c(O)c3c(c(O)c1C2=O)C[C@@](O)(C(=O)CO)C[C@@H]3O[C@H]1C[C@H](N)[C@H](O)[C@H](C)O1 [Doxorubicin, reference compound]
MIC (μg/ml) of antibiotic, no peptide [1]: 0.5 µg/mL

COc1cc(Cc2cnc(N)nc2N)cc(OC)c1OC [Trimethoprim, reference compound]
MIC (μg/ml) of antibiotic, no peptide [1]: 0.25 µg/mL

LLGNFFRKSKQKIGKQFKRIVQRIKNFLRNLVPRTQS (not fully specified) [Pentamide, five acidic residues in LL-37 replaced with neutral-polar residues, reference compound]
Suppression of TLR4 signaling / LPS-induced IL-6, in words (TLR4 signaling; BEAS-2B cells): failed to suppress TLR4 signaling | IL-6 production (%) LPS-depend. (TLR4 signaling): 400 ± 32% | Enhancement of TLR3 signaling / poly(I:C)-induced IL-6, in words (TLR3 signaling): failed to enhance TLR3 signaling | IL-6 production (%) poly(I:C)-depend. (TLR3 signaling): 31 ± 0% | Hydrodynamic radius (nm) pH 5.8 [2]: 1990 nm | Hydrodynamic radius (nm) pH 7.4 [2]: 1106 nm | pH-dependent dissociation of peptide particles, in words [2]: failed to dissociate | Binding to poly(I:C)/dsRNA in fluorescent polarization assay, in words (poly(I:C)): failed to bind dsRNA | IL-6 production, peptide with poly(I:C), in words (FPRL-1 receptor): did not enhance IL-6 production | IL-6 production, peptide added along with LL-37 and poly(I:C), in words (FPRL-1 receptor): had no effect on IL-6 production unless FPRL-1 expression was reduced

SKEKIGKEFKRIVQRIKDFLR [LL9-29]
IL-6 production (%) LPS-depend. (TLR4 signaling): 196 ± 11% | Enhancement of TLR3 signaling / poly(I:C)-induced IL-6, in words (TLR3 signaling): failed to enhance TLR3 signaling | IL-6 production (%) poly(I:C)-depend. (TLR3 signaling): 31 ± 3% | Hydrodynamic radius (nm) pH 5.8 [2]: 1281 nm | Hydrodynamic radius (nm) pH 7.4 [2]: 446.5 nm | pH-dependent dissociation of peptide particles, in words [2]: failed to dissociate | Interaction with fLL-37, in words (f-LL37): did not | Binding f-LL37: fold change in the fluorescence anisotropy values of f-LL-37 (f-LL37; between 1.0 nM and 1000 nM of added peptide): 2.6 ± 0.2 fold

SKEKIGKEFKRIVQRIKDFLRNLVPRTES ((1)..(29) LL8-37; listed as Homo sapiens)
IL-6 production (%) LPS-depend. (TLR4 signaling): 239 ± 21% | IL-6 production (%) poly(I:C)-depend. (TLR3 signaling): 38 ± 3% | Hydrodynamic radius (nm) pH 5.8 [2]: 615 nm | Hydrodynamic radius (nm) pH 7.4 [2]: 825 nm | Interaction with fLL-37, in words (f-LL37): retain partial activity to interact with fLL-37 | IL-6 production, peptide with poly(I:C), in words (FPRL-1 receptor): did not enhance IL-6 production | IL-6 production, peptide added along with LL-37 and poly(I:C), in words (FPRL-1 receptor): had no effect on IL-6 production unless FPRL-1 expression was reduced

GLLRKGGEKIGEKLKKIGQKIKNFFQKLVPQPEQ [mCRAMP, murine ortholog of LL-37, reference compound]
IL-6 production (%) LPS-depend. (TLR4 signaling): 82 ± 29% | Enhancement of TLR3 signaling / poly(I:C)-induced IL-6, in words (TLR3 signaling): failed to enhance TLR3 signaling; also recorded: unable to enhance IL-6 production | IL-6 production (%) poly(I:C)-depend. (TLR3 signaling): 31 ± 3% | Hydrodynamic radius (nm) pH 5.8 [2]: 1106 nm | Hydrodynamic radius (nm) pH 7.4 [2]: 1718 nm | Binding to poly(I:C)/dsRNA in fluorescent polarization assay, in words (poly(I:C)): failed to bind dsRNA | Enhancement of IL-6 production / signaling by Reo S4, in words (Reovirus dsRNA, Reo S4): unable to enhance IL-6 production

RL-37: LL-37 ortholog from Rhesus monkey, SEQ ID NO: 20 (RLGNFFRKVKEKIGGGLKKVGQKIKDFLGNLVPRTAS; (1)..(37) Monkey RL-37; listed as Macaca mulatta) [reference compound]
Enhancement of TLR3 signaling / poly(I:C)-induced IL-6, in words (TLR3 signaling): more similar to that of the human LL-37

LLGDFFRKSKEKIGKEFKRIVQRIKDFLRKLVPQPEQ (listed as Homo sapiens) [Peptide A]
IL-6 production (%) LPS-depend. (TLR4 signaling): 161 ± 11% | IL-6 production (%) poly(I:C)-depend. (TLR3 signaling): 41 ± 6% | Hydrodynamic radius (nm) pH 5.8 [2]: 956 nm | Hydrodynamic radius (nm) pH 7.4 [2]: 1990 nm | pH-dependent dissociation of peptide particles, in words [2]: reduced for the ability to dissociate under acidic pH conditions | Interaction with fLL-37, in words (f-LL37): retained partial interaction with fLL-37; also recorded: retain partial activity to interact with fLL-37 | Binding to poly(I:C)/dsRNA in fluorescent polarization assay, in words (poly(I:C)): debilitated for binding RNA | Antagonism of LL-37 enhancement of TLR3 signaling (IL-6), in words [3]: to a lesser degree than LL-29; also recorded: can partially antagonize the enhancement of TLR3 signaling | IL-6 production, peptide added along with LL-37 and poly(I:C), in words (FPRL-1 receptor): resulted in a reduction in IL-6 levels

NC[C@H]1O[C@H](O[C@H]2[C@H](O)[C@@H](O[C@H]3O[C@H](CO)[C@@H](O)[C@H](N)[C@H]3O)[C@H](N)C[C@@H]2N)[C@H](O)[C@@H](O)[C@@H]1O [Kanamycin, reference compound]
MIC (μg/ml) of antibiotic, no peptide [1]: 4 µg/mL
